Each structure is given as a SMILES string.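 A five-concentration, 48-hour dose response in 96-well plates underlies each endpoint, interpolated linearly between surrounding concentrations. GI50 marks 50% less growth.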 Calls of active or inactive are those of the source. Cut-off read from the data, not from the text of the source: active = GI50 up to about 1.1 µM and inactive = higher.

Test systems include SK-MEL-28; HCC 2998; A549; T47D; SNB-75; SF-268; A498; PC-3; DU-145; HOP-62; KM12; OVCAR-5; HL-60; MCF7; UACC-62; OVCAR-3; BT-549.
What all share (assay): DTP human tumour cell line panel, 48 h

For the molecule `COc1ccc(-c2oc3c(OC)c(OC)cc(O)c3c(=O)c2OC)cc1`, the GI50 in the assay on SK-MEL-28 was > 100 µM (inactive); in the assay on HCC 2998, > 100 µM (inactive); in the assay with A549 it was > 100 µM (inactive); in the assay with T47D, > 100 µM (inactive); with SNB-75, > 10 µM (inactive); in the assay with SF-268 it was > 100 µM (inactive). The GI50 in the assay on A498 was 45.8 µM (inactive); in the assay on PC-3 it was > 10 µM (inactive); in the assay on DU-145, > 100 µM (inactive); with HOP-62, 55.8 µM (inactive); with KM12, > 100 µM (inactive); in the assay on OVCAR-5 it was > 100 µM (inactive). The GI50 in the assay with HL-60, with MCF7, with UACC-62, with OVCAR-3 and with BT-549 was > 100 µM (inactive) in each case.
For `Brc1ccc(-c2[nH]c3ccccc3c2/N=N\c2ccccc2)cc1`, the GI50 in the assay on SK-MEL-28 was 21.2 µM (inactive); in the assay with HCC 2998 it was 16.8 µM (inactive); in the assay on A549, 16.6 µM (inactive); with T47D, 16.7 µM (inactive); in the assay with SNB-75, 19.5 µM (inactive); in the assay on SF-268, 17.9 µM (inactive). Besides, the GI50 with A498 is 25.4 µM (inactive); with PC-3 it was 16.1 µM (inactive); in the assay with DU-145, 17.5 µM (inactive); in the assay with HOP-62, 18.1 µM (inactive); in the assay with KM12, 16.5 µM (inactive); in the assay on OVCAR-5, 18.7 µM (inactive). Also, the GI50 with HL-60 was 26.8 µM (inactive); in the assay with MCF7 it was 16.1 µM (inactive); in the assay with UACC-62, 19.8 µM (inactive); with OVCAR-3, 12.3 µM (inactive); with BT-549 it was 22 µM (inactive).
In the case of `Cc1nc2c(o1)C(=O)c1ccccc1/C2=N/C1CCCCC1N` (configuration not stated), the GI50 was 0.166 µM (active) in the assay on SK-MEL-28; 1.65 µM (inactive) in the assay on HCC 2998; 1.46 µM (inactive) with A549; 0.345 µM (active) in the assay on T47D; 0.206 µM (active) in the assay on SNB-75; 1.09 µM (active) in the assay on SF-268. Moreover, the GI50 is 1.73 µM (inactive) with A498; 0.321 µM (active) in the assay with PC-3; 1.48 µM (inactive) in the assay with DU-145; 0.982 µM (active) with HOP-62; 1.67 µM (inactive) with KM12; 1.75 µM (inactive) in the assay with OVCAR-5. In addition, the GI50 with HL-60 was 0.2 µM (active); with MCF7 it was 0.265 µM (active); in the assay on UACC-62, 0.169 µM (active); with OVCAR-3 it was 0.249 µM (active); with BT-549, 0.41 µM (active).
In the case of `c1ccc2c(Cc3[nH]c4ccccc4c3Cc3c[nH]c4ccccc34)c[nH]c2c1`, the GI50 in the assay on SK-MEL-28 is 6.21 µM (inactive); in the assay with HCC 2998, 1.64 µM (inactive); in the assay with A549 it was 3.1 µM (inactive); with T47D, 2.93 µM (inactive); in the assay on SNB-75 it was 2.48 µM (inactive); with SF-268, 1.23 µM (inactive). Further, the GI50 in the assay on A498 is 2.39 µM (inactive); in the assay on PC-3 it was 2.38 µM (inactive); with DU-145, 1.8 µM (inactive); in the assay with HOP-62, 3.38 µM (inactive); in the assay with KM12 it was 2.09 µM (inactive); with OVCAR-5, 2.85 µM (inactive). The GI50 was 1.86 µM (inactive) with HL-60; 11.2 µM (inactive) with MCF7; 11 µM (inactive) in the assay on UACC-62; 3.16 µM (inactive) with OVCAR-3; 5.57 µM (inactive) in the assay with BT-549.
Turning to `N#Cc1c(NC(=S)Nc2ccccc2)sc2c1CCCC2`, the GI50 with SK-MEL-28, in the assay with HCC 2998, in the assay on T47D, in the assay with SNB-75, in the assay with SF-268 and with A498 was > 100 µM (inactive) in each case. Moreover, the GI50 in the assay on PC-3, in the assay on DU-145, in the assay on HOP-62, in the assay on KM12, in the assay on OVCAR-5 and in the assay with HL-60 was > 100 µM (inactive) in each case. The GI50 in the assay on MCF7 is > 100 µM (inactive); in the assay with UACC-62, 94.2 µM (inactive); with OVCAR-3, > 100 µM (inactive); in the assay on BT-549, > 100 µM (inactive).
`CC(C)=CCC[C@@H](C)c1c2nc3ccccc3[nH]c-2c(C)c(=O)c1O`: the GI50 in the assay with SK-MEL-28 is 4.38 µM (inactive); in the assay with HCC 2998, 5.45 µM (inactive); in the assay with A549 it was 2.37 µM (inactive); with T47D it was 1.91 µM (inactive); in the assay on SNB-75, 1.71 µM (inactive); in the assay with SF-268 it was 0.906 µM (active). In addition, the GI50 in the assay with A498 is 2.12 µM (inactive); with PC-3 it was 3.32 µM (inactive); with DU-145 it was 1.61 µM (inactive); in the assay on HOP-62 it was 1.19 µM (inactive); with KM12, 2.45 µM (inactive); in the assay on OVCAR-5, 3.52 µM (inactive). Further, the GI50 in the assay on HL-60 is 0.383 µM (active); with MCF7 it was 2.18 µM (inactive); in the assay with UACC-62 it was 1.09 µM (active); in the assay on OVCAR-3, 0.363 µM (active); in the assay on BT-549 it was 2.63 µM (inactive).
Regarding `O=c1cc(NNc2ccccc2)[nH]c(=S)[nH]1`, the GI50 with SK-MEL-28 is 42.7 µM (inactive); with HCC 2998, 17.4 µM (inactive); with A549, > 100 µM (inactive); in the assay on T47D it was 27.1 µM (inactive); in the assay on SNB-75, > 100 µM (inactive); with SF-268, 32.7 µM (inactive). Also, the GI50 in the assay on A498 was > 100 µM (inactive); in the assay with PC-3, > 100 µM (inactive); with DU-145 it was 64.9 µM (inactive); in the assay on HOP-62, > 100 µM (inactive); with KM12, 27.5 µM (inactive); in the assay on OVCAR-5, > 100 µM (inactive). The GI50 in the assay with HL-60 was 25.1 µM (inactive); in the assay on MCF7 it was 25.9 µM (inactive); in the assay on UACC-62, 63.1 µM (inactive); in the assay with OVCAR-3, 16.7 µM (inactive); in the assay with BT-549, 97.5 µM (inactive).
For `CCCC(=O)Nc1cc(/C=C/C(=O)N2C[C@@H]3C[C@]34C2=CC(=O)c2[nH]cc(C)c24)n(C)c1`, the GI50 was 0.408 µM (active) in the assay with SK-MEL-28; 0.0931 µM (active) in the assay with HCC 2998; 0.318 µM (active) in the assay with A549; 0.0867 µM (active) with T47D; 0.345 µM (active) in the assay on SNB-75; 0.083 µM (active) with SF-268. Also, the GI50 in the assay with A498 was 0.236 µM (active); in the assay on PC-3, 0.259 µM (active); in the assay on DU-145, 0.0673 µM (active); in the assay on HOP-62, 0.769 µM (active); with KM12 it was 0.653 µM (active); with OVCAR-5, 1.05 µM (active). Besides, the GI50 in the assay on HL-60 is 0.0471 µM (active); in the assay with MCF7 it was 0.0596 µM (active); with UACC-62 it was 0.0682 µM (active); in the assay on OVCAR-3, 0.429 µM (active); in the assay with BT-549, 0.29 µM (active).
As for `Cc1cccc(NC(=O)CC(=O)N2N=C(N3c4ccccc4Sc4ccccc43)CC2c2ccccc2)c1` (configuration not stated), the GI50 in the assay on SK-MEL-28, in the assay on HCC 2998, with A549, in the assay with T47D, in the assay on SNB-75 and in the assay on SF-268 was > 100 µM (inactive) in each case. Moreover, the GI50 with A498, in the assay on PC-3, in the assay with DU-145, in the assay with HOP-62, in the assay with KM12 and with OVCAR-5 was > 100 µM (inactive) throughout. Besides, the GI50 in the assay with HL-60, with MCF7, in the assay with UACC-62, in the assay on OVCAR-3 and in the assay on BT-549 was > 100 µM (inactive) in each case.

As a reminder, the GI50 is the concentration giving 50% growth inhibition.

The record behind these values is ChEMBL document CHEMBL1201862, “PubChem BioAssay data set” (2004).
